Literature values, collected in PubChem BioAssay AID1259409 (Chemical Carcinogenesis Research Information System (CCRIS), 2018).

Tested on: rodent chemically induced tumor inhibition, incidence and multiplicity
Test: CCRIS tumor inhibitor studies
Excerpt: The CCRIS database contains chemical records with carcinogenicity, mutagenicity, tumor promotion, and tumor inhibition test results. It was developed by the National Cancer Institute (NCI). Data are derived from studies cited in primary journals, current awareness tools, NCI reports, and other sources. Test results have been reviewed by experts in carcinogenesis and mutagenesis.
CCRIS provides historical information from the years 1985 - 2011. It is no longer updated.
This is an archive assay for CCRIS tumor inhibitor studies.

CCCCC1OC(=O)C2=CCCCC21 (stereo not given)
tumour outcome (control, treated, inhibition, significance) (Carcinogen: BENZO[A]PYRENE, 50-32-8, Dose [Inhibitor]: 0, 20 MG 3/WK FOR 4 WK ON DAYS OTHER THAN THE CARCINOGEN TREATMENT (STUDY DURATION: 20 WK), Route [Inhibitor]: GAVAGE, Species: MOUSE, Strain/Sex: STRAIN-A/FEMALE, Target Tissue: Type of Lesion: FORESTOMACH: TUMOR, Dose [Carcinogen]: 1 MG IN 0.2 ML COTTONSEED OIL 2/WK FOR 4 WK, Promoter: NONE USED): 13/19 (68%), 2/18 (11%), 84%, p<0.025

CC(O)CCC(=O)c1ccoc1 (stereo not given)
tumour outcome (control, treated, inhibition, significance) (Carcinogen: 4-(METHYLNITROSAMINO)-1-(3-PYRIDYL)-1-BUTANONE, 64091-91-4, Dose [Inhibitor]: 0, 1 UMOL IN 0.1 ML CORN OIL ONCE 2 HR PRIOR TO CARCINOGEN DOSE (STUDY DURATION: 16 WK), Route [Inhibitor]: GAVAGE, Species: MOUSE, Strain/Sex: STRAIN-A/FEMALE, Target Tissue: Type of Lesion: LUNG: ADENOMA, Dose [Carcinogen]: 10 UMOL IN 0.1 ML SALINE ONCE, Promoter: NONE USED): 100%, 100%, 0%, not significant

OCC(S)CS (stereo not given)
tumour outcome (control, treated, inhibition, significance) (Carcinogen: TRANS-5-AMINO-3-[2-(5-NITRO-2-FURYL)VINYL]-1,2,4-OXADIAZOLE;SQL8506, 28754-68-9, Carcinogen: TRANS-5-AMINO-3-[2-(5-NITRO-2-FURYL)VINYL]-1,2,4-OXADIAZOLE;SQL8506, 28754-68-9, Dose [Inhibitor]: 80 MG/KG 18 HR BEFORE THE 1ST CARCINOGEN DOSE FOLLOWED BY ADDITIONAL INJECTIONS IMMEDIATELY BEFORE EACH DOSE OF CARCINOG, Route [Inhibitor]: INTRAPERITONEAL, Species: MOUSE, Strain/Sex: CD-1/FEMALE, Target Tissue: Type of Lesion: LYMPHOID TISSUE: NONTHYMIC LYMPHOMA, Dose [Carcinogen]: 1 G/KG 2/D FOR 5 D EVERY 4 WK FOR 3 COURSES OF TREATMENT, Promoter: NONE USED): 8/137 (6%), 1/26 (4%), 33%, not calculated
tumour outcome (control, treated, inhibition, significance) (Carcinogen: TRANS-5-AMINO-3-[2-(5-NITRO-2-FURYL)VINYL]-1,2,4-OXADIAZOLE;SQL8506, 28754-68-9, Carcinogen: TRANS-5-AMINO-3-[2-(5-NITRO-2-FURYL)VINYL]-1,2,4-OXADIAZOLE;SQL8506, 28754-68-9, Dose [Inhibitor]: 80 MG/KG 18 HR BEFORE THE 1ST CARCINOGEN DOSE FOLLOWED BY ADDITIONAL INJECTIONS IMMEDIATELY BEFORE EACH DOSE OF CARCINOG, Route [Inhibitor]: INTRAPERITONEAL, Species: MOUSE, Strain/Sex: CD-1/FEMALE, Target Tissue: Type of Lesion: LYMPHOID TISSUE: THYMIC LYMPHOMA, Dose [Carcinogen]: 1 G/KG 2/D FOR 5 D EVERY 4 WK FOR 3 COURSES OF TREATMENT, Promoter: NONE USED): 22/137 (16%), 4/26 (15%), 6%, not calculated
tumour outcome (control, treated, inhibition, significance) (Carcinogen: TRANS-5-AMINO-3-[2-(5-NITRO-2-FURYL)VINYL]-1,2,4-OXADIAZOLE;SQL8506, 28754-68-9, Carcinogen: TRANS-5-AMINO-3-[2-(5-NITRO-2-FURYL)VINYL]-1,2,4-OXADIAZOLE;SQL8506, 28754-68-9, Dose [Inhibitor]: 80 MG/KG 18 HR BEFORE THE 1ST CARCINOGEN DOSE FOLLOWED BY ADDITIONAL INJECTIONS IMMEDIATELY BEFORE EACH DOSE OF CARCINOG, Route [Inhibitor]: INTRAPERITONEAL, Species: MOUSE, Strain/Sex: CD-1/FEMALE, Target Tissue: Type of Lesion: STOMACH: SQUAMOUS CARCINOMA, Dose [Carcinogen]: 1 G/KG 2/D FOR 5 D EVERY 4 WK FOR 3 COURSES OF TREATMENT, Promoter: NONE USED): 60/137 (44%), 14/26 (54%), -23%, not calculated

CC(C)=C1C=C(C(C)C)C(O)CC1 (stereo not given)
tumour outcome (control, treated, inhibition, significance) (Carcinogen: 7,12-DIMETHYLBENZ[A]ANTHRACENE, 57-97-6, Dose [Inhibitor]: 0, 12 NMOL PER REPEATED APPLICATION FOR 20 WK (STUDY DURATION: 20 WK), Route [Inhibitor]: DERMAL, Species: MOUSE, Strain/Sex: CD-1/FEMALE, Target Tissue: Type of Lesion: SKIN: TUMOR, Dose [Carcinogen]: 100 UG ONCE, Promoter: OKADAIC ACID, 78111-17-8): 87%, 33%, 62%, not calculated

CC(C)C(=O)Nc1ccc([N+](=O)[O-])c(C(F)(F)F)c1
tumour outcome (control, treated, inhibition, significance) (Carcinogen: DIETHYLNITROSAMINE, 55-18-5, Dose [Inhibitor]: 0, 0.5 MG/G IN DIET FOR 3 WK BEGINNING AT 25 WK OF AGE (STUDY DURATION: 52 WK), Route [Inhibitor]: ORAL, Species: MOUSE, Strain/Sex: B6C3F1/MALE, Target Tissue: Type of Lesion: LIVER: TUMOR, Dose [Carcinogen]: 0.2 MICROMOLAR/G BW ONCE AT 6 WK OF AGE, Promoter: NONE USED): 81%, 50%, 38%, p<0.05
tumour outcome (control, treated, inhibition, significance) (Carcinogen: DIETHYLNITROSAMINE, 55-18-5, Dose [Inhibitor]: 0, 0.5 MG/G IN DIET FOR 3 WK POST CARCINOGEN DOSE (STUDY DURATION: 52 WK), Route [Inhibitor]: ORAL, Species: MOUSE, Strain/Sex: B6C3F1/MALE, Target Tissue: Type of Lesion: LIVER: TUMOR, Dose [Carcinogen]: 0.2 MICROMOLAR/G BW ONCE AT 6 WK OF AGE, Promoter: NONE USED): 81%, 63%, 22%, not significant
tumour outcome (control, treated, inhibition, significance) (Carcinogen: DIETHYLNITROSAMINE, 55-18-5, Dose [Inhibitor]: 0, 0.5 MG/G IN DIET FOR 27 WK BEGINNING AT 25 WK OF AGE (STUDY DURATION: 52 WK), Route [Inhibitor]: ORAL, Species: MOUSE, Strain/Sex: B6C3F1/MALE, Target Tissue: Type of Lesion: LIVER: TUMOR, Dose [Carcinogen]: 0.2 MICROMOLAR/G BW ONCE, Promoter: NONE USED): 81%, 53%, 35%, p<0.05
tumour outcome (control, treated, inhibition, significance) (Carcinogen: DIETHYLNITROSAMINE, 55-18-5, Dose [Inhibitor]: 0, 0.5 MG/G IN DIET FOR DURATION OF STUDY (STUDY DURATION: 52 WK), Route [Inhibitor]: ORAL, Species: MOUSE, Strain/Sex: B6C3F1/MALE, Target Tissue: Type of Lesion: LIVER: TUMOR, Dose [Carcinogen]: 0.2 MICROMOLAR/G BW ONCE AT 6 WK OF AGE, Promoter: NONE USED): 81%, 97%, -20%, p<0.05
tumour outcome (control, treated, inhibition, significance) (Carcinogen: N-BUTYL-N-(4-HYDROXYBUTYL)NITROSAMINE, 3817-11-6, Dose [Inhibitor]: 0, 50 MG/KG 2/WK FOR 11 WK BEGINNING POST CARCINOGEN TREATMENT (STUDY DURATION:21WK), Route [Inhibitor]: ORAL, Species: RAT, Strain/Sex: WISTAR/MALE, Target Tissue: Type of Lesion: URINARY BLADDER: CARCINOMA, Dose [Carcinogen]: 0.05% IN DRINKING WATER FOR 10 WK, Promoter: NONE USED): 15/17 (88%), 12/16, 75%, 15%, not significant
tumour outcome (control, treated, inhibition, significance) (Carcinogen: N-BUTYL-N-(4-HYDROXYBUTYL)NITROSAMINE, 3817-11-6, Dose [Inhibitor]: 0, 50 MG/KG 2/WK FOR 13 WK BEGINNING POST CARCINOGEN TREATMENT (STUDY DURATION: 20 WK), Route [Inhibitor]: ORAL, Species: RAT, Strain/Sex: WISTAR/MALE, Target Tissue: Type of Lesion: URINARY BLADDER: CARCINOMA, Dose [Carcinogen]: 0.05% IN DRINKING WATER FOR 7 WK, Promoter: NONE USED): 25/39 (64%), 10/21 (48%), 25%, not significant
tumour outcome (control, treated, inhibition, significance) (Carcinogen: N-BUTYL-N-(4-HYDROXYBUTYL)NITROSAMINE, 3817-11-6, Dose [Inhibitor]: 0, 200 MG/KG 2/WK FOR 13 WK BEGINNING POST CARCINOGEN TREATMENT (STUDY DURATION:20 WK), Route [Inhibitor]: ORAL, Species: RAT, Strain/Sex: WISTAR/MALE, Target Tissue: Type of Lesion: URINARY BLADDER: CARCINOMA, Dose [Carcinogen]: 0.05% IN DRINKING WATER FOR 7 WK, Promoter: NONE USED): 25/39 (64%), 5/17 (29%), 55%, p<0.05
tumour outcome (control, treated, inhibition, significance) (Carcinogen: N-NUTYL-N-(4-HYDROXYBUTYL)NITROSAMINE, 3817-11-6, Dose [Inhibitor]: 0, 100 MG/KG 2/WK FOR 13 WK BEGINNING POIST CARCINOGEN TREATMENT (STUDY DURATION: 20 WK), Route [Inhibitor]: ORAL, Species: RAT, Strain/Sex: WISTAR/MALE, Target Tissue: Type of Lesion: URINARY BLADDER: CARCINOMA, Dose [Carcinogen]: 0.05% IN DRINKING WATER FOR 7 WK, Promoter: NONE USED): 25/39 (64%), 7/17 (41%), 36%, not significant

O=C1OCc2ccccc21
tumour outcome (control, treated, inhibition, significance) (Carcinogen: BENZO[A]PYRENE, 50-32-8, Dose [Inhibitor]: 0.034 MMOL/G IN DIET BEGINNING 1 WK PRIOR TO FIRST CARCINOGEN DOSE AND CONTINUING FOR 3 D POST LAST CARCINOGEN DOSE (STU, Route [Inhibitor]: ORAL, Species: MOUSE, Strain/Sex: ICR/FEMALE, Target Tissue: Type of Lesion: FORESTOMACH: TUMOR, Dose [Carcinogen]: 1 MG IN 0.2 ML CORN OIL 2/WK FOR 4 WK, Promoter: NONE USED): 95%, 95%, 0%, not significant
